Nine compounds from patent US6479524B1, “Substituted aryl and heteroaryl derivatives, their production and their use as medicines” (Boehringer Ingelheim Pharma KG, priority 1998, dated 2002) can be followed below.

The test relates to human citrated plasma. The experiment in a line: aPTT time prolongation (clotting of human citrated plasma, Biomatic B10 coagulometer). Format: biochemical. The settings on record: effective concentration at which the aPTT time is double compared with the control, 37° C. The method, then:
were investigated for their effect on prolonging the aPTT time as follows:
plasma, from human citrated blood.
Diethylbarbiturate acetate buffer, Behring Werke, Marburg (ORWH 60/61),
Biomatic B10 coagulometer, Desaga, Wiesloch.
The aPTT time was determined using a Biomatic B10 coagulometer made by Messrs. Sarstedt.
The test substance was placed in the test tubes prescribed by the manufacturer with 0.1 ml of human citrated plasma and 0.1 ml of PTT reagent. The mixture was incubated for three minutes at 37° C. The clotting reaction was started by the addition of 0.1 ml of calcium solution. The time is measured using the apparatus from the addition of the calcium solution up to the clotting of the mixture. Mixtures to which 0.1 ml of DBA buffer were added were used as the controls.
On to `CCOC(=O)Cc1cc(C#CCNc2ccc(C(=N)N)cc2)c(C)cc1C(=O)N1CCCC1C` (racemic) [A, rac-4-{3-[5-ethoxycarbonylmethyl-2-methyl-4-(2-methyl-pyrrolidinocarbonyl)-phenyl]-propargylamino}benzamidine], for which the “aPTT time (ED200 in μM)” value stood at 0.23 µM.

Regarding `Cc1cc(C(=O)N2CCCC2C)c(C)cc1C#CCNc1ccc(C(=N)N)cc1` (racemic) [B, rac-4-{3-[2,5-dimethyl-4-(2-methyl-pyrrolidinocarbonyl)-phenyl]-propargylamino}benzamidine], the “aPTT time (ED200 in μM)” value was 0.45 µM. To `Cc1cc(C(=O)C(C)C)c(C)cc1C#CCNc1ccc(C(=N)N)cc1` [C, 4-[3-(2,5-dimethyl-4-isopropylcarbonyl-phenyl)propargyl-amino]benzamidine] belongs 0.97 µM; to `Cc1cc(C(=O)N(C)c2ccccn2)c(C)cc1C#CCNc1ccc(C(=N)N)cc1` [D, 4-{3-[2,5-dimethyl-4-(N-methyl-N-pyridin-2-yl-aminocarbonyl)-phenyl]propargylamino}benzamidine], 0.23 µM; to `Cc1cc(C(=O)N(C)c2ccccn2)c(C)cc1CCCNc1ccc(C(=N)N)cc1` [E, 4-{3-[2,5-dimethyl-4-(N-methyl-N-pyridin-2-yl-aminocarbonyl)-phenyl]prop-1-ylamino}benzamidine], 0.69 µM. As to `Cc1cc(C#CCNc2ccc(C(=N)N)cc2)ccc1C(=O)N1CCCC1` [F, 4-[3-(3-methyl-4-pyrrolidinocarbonyl-phenyl)-propargyl-amino]-benzamidine], the “aPTT time (ED200 in μM)” value was determined as 0.54 µM. With `CCN(CCC(=O)OC)C(=O)c1cc(C)c(C#CCNc2ccc(C(=N)N)cc2)cc1C` [G, 4-{3-[2,5-dimethyl-4-(N-(2-methoxycarbonyl-ethyl)-N-ethyl-carbonylamino)-phenyl]-propargylamino}benzamidine], the “aPTT time (ED200 in μM)” value stood at 0.29 µM. As for `Cc1cc(NC(=O)N(CC(=O)O)C(C)C)c(C)cc1C#CCNc1ccc(C(=N)N)cc1` [H, 4-{3-[2,5-dimethyl-4-(N-isopropyl-N-hydroxycarbonylmethyl-aminocarbonyl-amino)-phenyl]-propargylamino}-benzamidine], the figure is 0.20 µM. As for `Cc1cc(N(C(=O)CC(=O)O)C(C)C)c(C)cc1C#CCNc1ccc(C(=N)N)cc1` [I, 4-{3-[2,5-dimethyl-4-(N-isopropyl-N-hydroxycarbonylmethyl-carbonyl-amino)-phenyl]-propargylamino}-benzamidine], the figure is 0.45 µM.
